The values that follow come from US8962664B2, “Selective glycosidase inhibitors and uses thereof” (Simon Fraser University, priority 2006, dated 2015).

For one data set, the target named is O-GlcNAcase (Homo sapiens (Human), UniProt O60502). Put plainly: Assay for determination of KI values for inhibition of O-GlcNAcase activity. The settings on record: pNP-GlcNAc 0.5 mM, PBS buffer pH 7.4, 37° C., Dixon plots. Type of data set: biochemical. How it is done: Experimental Procedure for Kinetic Analyses: Enzymatic reactions were carried out in PBS buffer (pH 7.4) using pNP-GlcNAc as a substrate (0.5 mM) and monitored continuously at 37° C. at 400 nm using a Cary 3E UV-VIS spectrophotometer equipped with a Peltier temperature controller. Reactions were pre-heated in a 500 μL quartz cuvette for approximately 5 minutes followed by addition of 10 μL enzyme via syringe (final enzyme concentration 0.002 mg/mL). Reaction velocities were determined by linear regression of the linear region of the reaction progress curve between the first and third minutes. An inhibitor concentration range of ⅕ to 5 times K1 was used in each case.
Chain of O-GlcNAcase (O60502 whole entry): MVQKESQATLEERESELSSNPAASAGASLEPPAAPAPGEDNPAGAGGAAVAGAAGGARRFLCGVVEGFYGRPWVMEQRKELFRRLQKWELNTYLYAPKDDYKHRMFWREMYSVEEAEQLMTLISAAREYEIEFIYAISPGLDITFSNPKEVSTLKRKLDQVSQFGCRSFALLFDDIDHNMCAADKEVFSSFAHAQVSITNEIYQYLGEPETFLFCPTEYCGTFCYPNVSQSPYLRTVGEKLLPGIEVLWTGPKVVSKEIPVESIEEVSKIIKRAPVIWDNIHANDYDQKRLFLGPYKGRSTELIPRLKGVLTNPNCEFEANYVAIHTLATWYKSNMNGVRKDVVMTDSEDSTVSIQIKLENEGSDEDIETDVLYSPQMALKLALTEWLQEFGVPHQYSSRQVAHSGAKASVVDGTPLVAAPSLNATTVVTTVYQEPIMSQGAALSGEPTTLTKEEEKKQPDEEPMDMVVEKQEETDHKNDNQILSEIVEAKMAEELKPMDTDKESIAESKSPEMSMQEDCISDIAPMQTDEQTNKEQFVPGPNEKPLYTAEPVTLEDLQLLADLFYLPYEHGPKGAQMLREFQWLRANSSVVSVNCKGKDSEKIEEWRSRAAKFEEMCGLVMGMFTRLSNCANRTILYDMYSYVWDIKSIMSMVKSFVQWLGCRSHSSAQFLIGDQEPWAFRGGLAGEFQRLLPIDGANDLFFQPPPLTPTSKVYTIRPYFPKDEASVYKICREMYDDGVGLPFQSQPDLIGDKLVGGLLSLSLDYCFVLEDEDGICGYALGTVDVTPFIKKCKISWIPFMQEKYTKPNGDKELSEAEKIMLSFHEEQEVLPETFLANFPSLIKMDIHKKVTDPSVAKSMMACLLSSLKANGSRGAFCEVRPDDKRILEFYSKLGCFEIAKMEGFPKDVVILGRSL
For example, the K1 values for inhibition of O-GlcNAcase shown in Table 4 were obtained for compounds 2, 4, and 6. All K1 values were determined using linear regression of a Dixon plots.

Data set [1] is described as follows: Stability on storage neat. The settings on record: stored neat at 0° C. (7 d). It is filed as physicochemical. How it is done:
The azide obtained as described above (200 mg, 0.81 mmol) was dissolved in 3:1 THF:H2O (5 mL) and triphenylphosphine (310 mg, 1.2 mmol) was added. The solution was then stirred overnight at room temperature. Concentration of the mixture followed by flash chromatography of the resultant residue on silica gel (MeOH:EtOAc 2:3) gave 130 mg (75% yield) of (3aR,5R,6S,7R,7aR)-5-(aminomethyl)-2-propyl-5,6,7,7a-tetrahydro-3aH-pyrano[3,2-d]thiazole-6,7-diol (51) as a colourless oil. […] (7 d). ^1H NMR (500 MHz, methanol-d4): δ 0.97 (t, 3H, J=7.4 Hz), 1.63-1.67 (m, 2H), 2.43-2.49 (m, 2H), 3.39 (ddd, 1H, J=2.5, 4.1, 9.0 Hz), 3.51 (dd, 1H, J=4.1, 9.5 Hz), 3.64 (dd, 1H, J=2.5, 12.5 Hz), 3.75 (dd, 1H, J=6.1, 12.5 Hz), 4.04 (dd, 1H, J=4.4, 4.5 Hz), 4.28 (m, 1H), 6.35 (d, 1H, J=7.0 Hz).

The term Ki denotes a measure of affinity in units of concentration, obtained from inhibition or displacement. In the case of `OC[C@H]1O[C@@H]2SC(CF)=N[C@@H]2[C@@H](O)[C@@H]1O` [Compound 2, (3aR,5R,6S,7R,7aR)-2-(fluoromethyl)-5-(hydroxymethyl)-5,6,7,7a-tetrahydro-3aH-pyrano[3,2-d]thiazole-6,7-diol], the Ki at O-GlcNAcase came to 10 µM.

On O-GlcNAcase, `OC[C@H]1O[C@@H]2SC(C(F)F)=N[C@@H]2[C@@H](O)[C@@H]1O` [Compound 4, (3aR,5R,6S,7R,7aR)-2-(difluoromethyl)-5-(hydroxymethyl)-5,6,7,7a-tetrahydro-3aH-pyrano[3,2-d]thiazole-6,7-diol] yielded a Ki of 7.7 µM.

`OC[C@H]1O[C@@H]2SC(C(F)(F)F)=N[C@@H]2[C@@H](O)[C@@H]1O` [Compound 6, (3aR,5R,6S,7R,7aR)-5-(hydroxymethyl)-2-(trifluoromethyl)-5,6,7,7a-tetrahydro-3aH-pyrano[3,2-d]thiazole-6,7-diol] showed a Ki at O-GlcNAcase of 5.6 µM.

With `CCCC1=N[C@@H]2[C@@H](O)[C@H](O)[C@@H](CN)O[C@@H]2S1` [Compound 51, (3aR,5R,6S,7R,7aR)-5-(aminomethyl)-2-propyl-5,6,7,7a-tetrahydro-3aH-pyrano[3,2-d]thiazole-6,7-diol], the stability on storage entry in data set [1] is on record as “decompose slowly with time”.
